{
  "source": "paper PMC8729037",
  "about": "(European journal of pharmacology, 2019)",
  "key": {"[1]": {"test_system": "c-Src, β-catenin, PYK-2 and the EGFR", "conditions": "A549 cells; ref Moody et al., 2014; cited from earlier work"}, "neurotensin receptor 1 [2]": {"target": "neurotensin receptor 1 (Homo sapiens, UniProt P30989)", "sequence (P30989 whole entry)": "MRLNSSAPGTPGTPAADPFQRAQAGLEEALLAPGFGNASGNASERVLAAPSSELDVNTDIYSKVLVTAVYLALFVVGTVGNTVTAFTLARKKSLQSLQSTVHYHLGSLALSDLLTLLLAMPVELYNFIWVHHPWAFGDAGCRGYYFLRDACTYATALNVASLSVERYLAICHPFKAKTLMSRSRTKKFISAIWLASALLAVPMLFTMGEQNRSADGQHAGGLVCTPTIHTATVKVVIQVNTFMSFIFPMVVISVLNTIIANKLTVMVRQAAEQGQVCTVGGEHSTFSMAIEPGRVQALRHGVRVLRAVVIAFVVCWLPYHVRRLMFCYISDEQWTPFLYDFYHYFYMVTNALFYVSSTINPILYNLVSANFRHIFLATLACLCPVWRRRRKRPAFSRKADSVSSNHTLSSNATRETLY", "experiment": "Receptor binding, inhibition of specific"}, "EGFR [3]": {"test_system": "EGFR", "experiment": "Western blot, EGFR tyrosine phosphorylation", "format": "cell-based, human", "conditions": "100 nM NTS; for Inhibition of NTS-induced EGFR tyrosine phosphorylation (in words): 5 μM DPI or 5 mM Tiron, NCI-H838, Fig. 5; for Effect on NTS-induced EGFR tyrosine phosphorylation (in words): Fig. 6"}, "ERK": {"test_system": "ERK", "experiment": "Western blot, ERK tyrosine phosphorylation", "format": "cell-based, human", "conditions": "100 nM NTS; for Inhibition of NTS-induced ERK tyrosine phosphorylation (in words): 5 μM DPI or 5 mM Tiron, NCI-H838, Fig. 5"}, "HER2": {"test_system": "HER2", "experiment": "Western blot, HER2 tyrosine phosphorylation", "format": "cell-based, human", "conditions": "100 nM NTS; for Inhibition of NTS-induced HER2 tyrosine phosphorylation (in words): 5 μM DPI or 5 mM Tiron, NCI-H838, Fig. 5"}, "EGFR [4]": {"test_system": "EGFR", "conditions": "NSCLC cell lines; ref Moody et al., 2014; cited from earlier work"}, "[5]": {"test_system": "PC-3M prostate cancer cells", "conditions": "ref Valerie et al., 2011; cited from earlier work"}, "neurotensin receptor 1 [6]": {"test_system": "neurotensin receptor 1", "conditions": "colorectal cancer; ref Wang et al., 2010; cited from earlier work"}, "Nox and Duox enzymes": {"test_system": "Nox and Duox enzymes", "conditions": "ref Moody et al., 2018; Doroshow et al., 2012; cited from earlier work"}, "NCI-H838 cells": {"test_system": "NCI-H838 cells", "experiment": "MTT proliferation assay, NCI-H838 cells", "conditions": "lapatinib combined with SR48692, Fig. 7"}, "tubulin": {"test_system": "tubulin", "experiment": "Western blot, total tubulin", "format": "cell-based, human", "conditions": "lapatinib; control; Fig. 6"}},
  "data": [
    {"smiles": "COc1ccc2c(c1)CC[C@@H]1[C@@H]2CC[C@]2(C)[C@@H](NCCCCCCN3C(=O)C=CC3=O)CC[C@@H]12", "note": "[U73122]", "values": [
      {"measurement": "Effect on neurotensin-induced EGFR tyrosine phosphorylation (in words)", "setting": "[1]", "result": "blocked"}
    ]},
    {"smiles": "C[C@@H]1CN([C@H]2CC[C@](C#N)(c3ccc(F)cc3)CC2)CC[C@]1(C(=O)O)c1ccccc1", "note": "[Levocabastine]", "values": [
      {"measurement": "IC50", "setting": "neurotensin receptor 1 [2]", "result": "> 2", "unit": "µM"}
    ]},
    {"smiles": "COc1cc2ncnc(Nc3ccc(F)c(Cl)c3)c2cc1OCCCN1CCOCC1", "note": "[Gefitinib]", "values": [
      {"measurement": "IC50", "setting": "neurotensin receptor 1 [2]", "result": "> 2", "unit": "µM"}
    ]},
    {"smiles": "O=S(=O)(O)c1cc(O)c(O)c(S(=O)(=O)O)c1", "note": "[Tiron]", "values": [
      {"measurement": "Inhibition of NTS-induced EGFR tyrosine phosphorylation (in words)", "setting": "EGFR [3]", "result": "significantly inhibited"},
      {"measurement": "Inhibition of NTS-induced ERK tyrosine phosphorylation (in words)", "setting": "ERK", "result": "significantly inhibited"},
      {"measurement": "Inhibition of NTS-induced HER2 tyrosine phosphorylation (in words)", "setting": "HER2", "result": "significantly inhibited"},
      {"measurement": "Effect on neurotensin-induced EGFR tyrosine phosphorylation (in words)", "setting": "EGFR [4]", "result": "reduced"}
    ]},
    {"smiles": "COc1cccc(OC)c1-c1cc(C(=O)NC2(C(=O)O)C3CC4CC(C3)CC2C4)nn1-c1ccnc2cc(Cl)ccc12", "note": "(stereo not drawn) [SR48692]", "values": [
      {"measurement": "IC50", "setting": "neurotensin receptor 1 [2]", "result": "0.16 ± 0.025", "unit": "µM"},
      {"measurement": "Sensitivity to ionizing radiation (in words)", "setting": "[5]", "result": "enhanced sensitivity to ionizing radiation"},
      {"measurement": "Effect on neurotensin-induced EGFR tyrosine phosphorylation (in words)", "setting": "EGFR [4]", "result": "reduced"}
    ]},
    {"smiles": "CCCC(=O)[O-].[Na+]", "note": "[Sodium butyrate]", "values": [
      {"measurement": "Neurotensin receptor 1 densities (in words)", "setting": "neurotensin receptor 1 [6]", "result": "reduced"}
    ]},
    {"smiles": "c1ccc2c(c1)[I+]c1ccccc1-2", "note": "[DPI, diphenylene iodonium]", "values": [
      {"measurement": "Inhibition of Nox and Duox enzymes (in words)", "setting": "Nox and Duox enzymes", "result": "inhibits all Nox and Duox enzymes"},
      {"measurement": "Inhibition of NTS-induced EGFR tyrosine phosphorylation (in words)", "setting": "EGFR [3]", "result": "significantly inhibited"},
      {"measurement": "Inhibition of NTS-induced ERK tyrosine phosphorylation (in words)", "setting": "ERK", "result": "significantly inhibited"},
      {"measurement": "Inhibition of NTS-induced HER2 tyrosine phosphorylation (in words)", "setting": "HER2", "result": "significantly inhibited"}
    ]},
    {"smiles": "CS(=O)(=O)CCNCc1ccc(-c2ccc3ncnc(Nc4ccc(OCc5cccc(F)c5)c(Cl)c4)c3c2)o1", "note": "[Lapatinib]", "values": [
      {"measurement": "Shift of SR48692 dose-response curve (in words)", "setting": "NCI-H838 cells", "result": "shifted the SR48692 dose-response curve to the left"},
      {"measurement": "Effect on NTS-induced EGFR tyrosine phosphorylation (in words)", "setting": "EGFR [3]; 0.1 μM lapatinib", "result": "impaired"},
      {"measurement": "Effect on NTS-induced EGFR tyrosine phosphorylation (in words)", "setting": "EGFR [3]; 1 or 10 μM lapatinib", "result": "significantly reduced"},
      {"measurement": "Effect on NTS-induced ERK tyrosine phosphorylation (in words)", "setting": "ERK; 1 or 10 μM lapatinib, Fig. 6", "result": "significantly reduced"},
      {"measurement": "Effect on NTS-induced HER2 tyrosine phosphorylation (in words)", "setting": "HER2; 1 or 10 μM lapatinib, Fig. 6", "result": "significantly reduced"},
      {"measurement": "IC50", "setting": "neurotensin receptor 1 [2]", "result": "> 2", "unit": "µM"},
      {"measurement": "Effect on total tubulin (in words)", "setting": "tubulin", "result": "no effect"}
    ]},
    {"smiles": "CNC(=O)[C@H](Cc1c[nH]c2ccccc12)NC(=O)[C@@H](CC(=O)NO)CC(C)C", "note": "[GM6001]", "values": [
      {"measurement": "Effect on neurotensin-induced EGFR tyrosine phosphorylation (in words)", "setting": "[1]", "result": "blocked"}
    ]},
    {"smiles": "CC(C)(C)n1nc(-c2ccc(Cl)cc2)c2c(N)ncnc21", "note": "[PP2]", "values": [
      {"measurement": "Effect on neurotensin-induced EGFR tyrosine phosphorylation (in words)", "setting": "[1]", "result": "blocked"}
    ]}
  ]
}
